The text below walks through data of US10517889B2, “Modulators of SMAD7 expression” (Ionis Pharmaceuticals, Inc., priority 2017, dated 2019).

Data set [1] concerns human SMAD7 mRNA. Put plainly: Dose-dependent inhibition of human SMAD7 mRNA expression in Hep3B cells (Example 3, Study 1 and 2). Format: cell-based. The note with it: electroporation; for % inhibition of SMAD7 mRNA expression: approximately 16 hours; for IC50: Study 2 (740-20000 nM). Here is the method: The antisense oligonucleotides were tested in a series of experiments that had similar culture conditions as described below.
(§1) Cells were plated at a density of 20,000 cells per well and transfected using electroporation with 0.31 μM, 1.25 μM, 5.00 μM, or 20.00 μM concentrations of antisense oligonucleotide, as specified in the Tables below. ION 483663 was included in the assays for comparison. After a treatment period of approximately 16 hours, RNA was isolated from the cells and SMAD7 mRNA levels were measured by quantitative real-time PCR. Primer probe set RTS5062 was used to measure human SMAD7 mRNA levels. SMAD7 mRNA levels were adjusted according to total RNA content, as measured by RIBOGREEN®. Results are presented as percent inhibition of SMAD7 mRNA expression, relative to untreated control cells.
The half maximal inhibitory concentration (IC50) of each oligonucleotide is also presented.
as §1, with “0.74” for “0.31”, “2.22” for “1.25”, “6.67” for “5.00”, “below.” for “below. ION 483663 was included in the assays for comparison.”

Data set [2] deals with human SMAD7 mRNA. Put plainly: Antisense inhibition of human SMAD7 mRNA expression in Hep3B cells by 3-10-3 cEt gapmers, 10,000 nM, electroporation (Example 2). It is filed as cell-based. The note with it: approximately 24 hours. The method, boiled down:
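qRT-PCR (RTS5062) of SMAD7 mRNA, normalised to RIBOGREEN total RNA, gave percent inhibition relative to untreated controls. Hep3B cells at 20,000 per well received 10,000 nM oligonucleotide by electroporation, with ~24 h treatment.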

Where [3] appears, read: 740 nM, Study 2, relative to untreated control cells.
Setting [4] is: SMAD7 mRNA, Hep3B cells, 10,000 nM antisense oligonucleotide, electroporation, primer probe set RTS5062, relative to untreated control cells.
[5] abbreviates: Hep3B cells, electroporation with 10,000 nM antisense oligonucleotide, primer probe set RTS5062, relative to untreated control cells.

Strand notation (5' to 3'): a small letter for the sugar, then the base; units joined by * are phosphorothioate-linked, units joined directly phosphodiester-linked; [ ] holds rarer units or linkages, { } end groups; capitals alone tell only the bases. k = constrained ethyl (cEt); [5mC] = 5-methylcytosine; d = 2'-deoxy (DNA) Some results are limits rather than exact numbers.

One may read the IC50 as the point on the concentration scale where inhibition reaches its midpoint. The term % Inhibition denotes how much of the control response was suppressed. A higher % Inhibition goes with a response far below the control. In the case of “772553 (antisense kT*k[5mC]*kT*dT*dG*dA*dG*d[5mC]*dA*d[5mC]*d[5mC]*dG*dA*kG*kT*kG) [compound 772553]”, the “% inhibition of SMAD7 mRNA expression” value was found to be 36% in the data set on human SMAD7 mRNA [1] (setting [3]); 45% in the data set on human SMAD7 mRNA [1] (2220 nM, Study 2); 71% in the data set on human SMAD7 mRNA [1] (6670.0 nM, Study 2); 89% in the data set on human SMAD7 mRNA [1] (20000.0 nM, Study 2). Moreover, in the data set with human SMAD7 mRNA [1], the IC50 came to 2 µM. For the same substance, in the data set with human SMAD7 mRNA [2] (setting [4]), the “% Inhibition” value amounted to 59%.
As for “772560 (antisense kT*kT*kG*d[5mC]*dA*d[5mC]*dA*dG*d[5mC]*dA*dG*dG*dA*kG*kG*kG) [compound 772560]”, the “% inhibition of SMAD7 mRNA expression” value amounted to 0% in the data set on human SMAD7 mRNA [1] (setting [3]); 32% in the data set with human SMAD7 mRNA [1] (2220 nM, Study 2); 57% in the data set with human SMAD7 mRNA [1] (6670.0 nM, Study 2); 82% in the data set on human SMAD7 mRNA [1] (20000.0 nM, Study 2); 66% with human SMAD7 mRNA [2] (setting [5]). The same substance showed a concentration for half-maximal inhibition (IC50) in the data set on human SMAD7 mRNA [1] of 5 µM.
Turning to “772578 (kG*kG*kT*dA*dT*d[5mC]*dT*dG*dG*dA*dG*dT*dA*kA*kG*kG; antisense) [compound 772578]”, the “% inhibition of SMAD7 mRNA expression” value came out at 54% in the data set with human SMAD7 mRNA [1] (setting [3]); 44% in the data set on human SMAD7 mRNA [1] (2220 nM, Study 2); 70% in the data set on human SMAD7 mRNA [1] (6670.0 nM, Study 2); 86% in the data set on human SMAD7 mRNA [1] (20000.0 nM, Study 2). Further, it took 1 µM to reach half-maximal inhibition in the data set with human SMAD7 mRNA [1] (IC50). Further, in the data set with human SMAD7 mRNA [2] (setting [4]), the “% Inhibition” value is listed as 63%.
As for “772732 (kG*kA*kT*dA*dT*dT*dT*dA*dG*d[5mC]*dT*dG*dT*k[5mC]*kA*kG; antisense) [compound 772732]”, the “% inhibition of SMAD7 mRNA expression” value worked out at 27% in the data set on human SMAD7 mRNA [1] (setting [3]); 60% in the data set on human SMAD7 mRNA [1] (2220 nM, Study 2); 63% with human SMAD7 mRNA [1] (6670.0 nM, Study 2); 68% with human SMAD7 mRNA [1] (20000.0 nM, Study 2). Besides, the IC50 in the data set on human SMAD7 mRNA [1] was found to be 3 µM. In addition, in the data set on human SMAD7 mRNA [2] (setting [4]), the “% Inhibition” value amounted to 58%.
As for “772842 (kG*kT*kT*dA*dA*dT*dA*dA*dT*dA*dT*d[5mC]*dT*kT*k[5mC]*k[5mC]; antisense) [compound 772842]”, the “% inhibition of SMAD7 mRNA expression” value was 3% with human SMAD7 mRNA [1] (setting [3]); 23% in the data set with human SMAD7 mRNA [1] (2220 nM, Study 2); 65% in the data set with human SMAD7 mRNA [1] (6670.0 nM, Study 2); 72% in the data set with human SMAD7 mRNA [1] (20000.0 nM, Study 2). The substance further gave an IC50 in the data set with human SMAD7 mRNA [1] of 6 µM. Further, the “% Inhibition” value in the data set with human SMAD7 mRNA [2] (Hep3B cells, electroporation with 10,000 nM antisense oligonucleotide, RTS5062, percent inhibition of SMAD7 mRNA relative to untreated control cells) was 79%.
Consider “772858 (kA*kG*kT*dG*dT*dT*d[5mC]*dA*dA*d[5mC]*dA*dA*dT*kG*k[5mC]*kT; antisense) [compound 772858]”, for which the “% inhibition of SMAD7 mRNA expression” value with human SMAD7 mRNA [1] (setting [3]) is 7%; with human SMAD7 mRNA [1] (2220 nM, Study 2) it was 26%; in the data set on human SMAD7 mRNA [1] (6670.0 nM, Study 2), 29%; with human SMAD7 mRNA [1] (20000.0 nM, Study 2), 51%. This substance showed an IC50 in the data set on human SMAD7 mRNA [1] greater than 20 µM. In addition, the “% Inhibition” value with human SMAD7 mRNA [2] (setting [4]) stood at 62%.
Regarding “790476 (kT*kT*k[5mC]*dT*dT*dG*dA*dG*d[5mC]*dA*d[5mC]*d[5mC]*dG*kA*kG*kT; antisense) [compound 790476]”, the “% inhibition of SMAD7 mRNA expression” value with human SMAD7 mRNA [1] (setting [3]) was 8%; with human SMAD7 mRNA [1] (2220 nM, Study 2) it was 38%; in the data set on human SMAD7 mRNA [1] (6670.0 nM, Study 2) it was 63%; with human SMAD7 mRNA [1] (20000.0 nM, Study 2), 69%. This substance returned an IC50 in the data set on human SMAD7 mRNA [1] of 5 µM. In addition, in the data set on human SMAD7 mRNA [2] (Hep3B cells, electroporation with 10,000 nM antisense oligonucleotide, SMAD7 mRNA by RT-PCR (RTS5062), relative to untreated control cells), the “% Inhibition” value was 67%.
With “790488 (kT*kT*k[5mC]*d[5mC]*dG*dA*dG*dG*dA*dA*dT*dG*d[5mC]*k[5mC]*kT*kG; antisense) [compound 790488]”, the “% inhibition of SMAD7 mRNA expression” value was 12% in the data set with human SMAD7 mRNA [1] (setting [3]); 34% in the data set with human SMAD7 mRNA [1] (2220 nM, Study 2); 46% in the data set with human SMAD7 mRNA [1] (6670.0 nM, Study 2); 67% in the data set on human SMAD7 mRNA [1] (20000.0 nM, Study 2). The half-inhibitory concentration (IC50) in the data set with human SMAD7 mRNA [1] came to 7 µM. In the data set on human SMAD7 mRNA [2] (setting [4]), the “% Inhibition” value was 81%.
For the substance “790614 (kG*kA*kG*dA*dA*dT*dG*d[5mC]*dT*dT*d[5mC]*dT*d[5mC]*kT*kT*kG; antisense) [compound 790614]”, the “% inhibition of SMAD7 mRNA expression” value in the data set on human SMAD7 mRNA [1] (setting [3]) worked out at 0%; in the data set with human SMAD7 mRNA [1] (2220 nM, Study 2), 29%; with human SMAD7 mRNA [1] (6670.0 nM, Study 2), 45%; in the data set on human SMAD7 mRNA [1] (20000.0 nM, Study 2), 54%. The 50% inhibitory concentration (IC50) in the data set with human SMAD7 mRNA [1] is 11 µM. The “% Inhibition” value in the data set with human SMAD7 mRNA [2] (setting [5]) turned out to be 70%.
